Consider 18 compounds from paper PMC6470795 (Molecules, 2019).

Each structure is given as a SMILES string. Like-named read-outs stand apart in the source and are kept apart here.

In series [1] the test system is hepatic carcinoma 97H cells. Description: MTT antiproliferative assay, 97H cells. It is filed as cell-based, human. The conditions noted are these: read-out: IC50 of Against 97H cells. Background: Tetrazolium assays rely on reduction of a dye to a coloured formazan, in cell work by metabolically active cells.
Source text: (§1) The cell lines, 97H (human liver cancer cell), Pc9 (human non-small cell lung cancer), HELA (human epithelial cervical cancer cell line), SJSA1 (human osteosarcoma cells), LO2 (human normal liver cells), and HLF (human embryonic lung fibroblast), used in this study were purchased from the Guangzhou ginny ou Biotechnology Co. Ltd. (Guangzhou, China). Cell lines were cultivated in Dulbecco’s Modified Eagle Medium (DMEM) containing 10% (v/v) heat-inactivated fetal bovine serum (FBS), 100 units/mL penicillin, and 100 μg/mL streptomycin.
(§2) For the cytotoxicity assay, the cells grown in the logarithmic phase were seeded into 96-well plates (5 × 10^3 cells/well) for 24 h, and then exposed to different concentrations of the test compounds for 48 h. After the attached cells had been incubated with 5 mg/mL MTT (Sigma, St. Louis, MO, USA) for another 4 h, the suspension was discarded and subsequently the dark blue crystals (formazan) were solubilized in dimethyl sulfoxide (DMSO). Then, the absorbance was measured at 570 nm using a multifunction microplate reader (Molecular Devices, Flex Station 3) (Thermo Fisher Scientific, San Jose, CA, USA), and each experiment was performed at least in triplicate.
The subject of series [2] is LO2 (human normal liver cells). In words: MTT assay, LO2 normal cells. Type of series: cell-based. The conditions noted are these: 48 h, read-out: IC50 LO2.
Source text: as §1, §2
Series [3] concerns SJSA1 (human osteosarcoma cells). In words: MTT antiproliferative assay, SJSA1 cells. Type of series: cell-based. The conditions noted are these: SJSA-1, 48 h, read-out: IC50 SJSA1.
Source text: as §1, §2
Series [4] concerns Hela (human epithelial cervical cancer cells). In words: MTT antiproliferative assay, Hela cells. It is filed as cell-based. The conditions noted are these: HeLa, 48 h, read-out: IC50 Hela.
Source text: as §1, §2
For series [5], the system named is HLF (human embryonic lung fibroblast cells). Description: MTT assay, HLF normal cells. The conditions noted are these: 48 h, read-out: IC50 HLF. Type of series: cell-based.
Source text: as §1, §2
The subject of series [6] is Pc9 (human non-small cell lung cancer cells). In words: MTT antiproliferative assay, Pc9 cells. Type of series: cell-based. The conditions noted are these: PC-9, 48 h, read-out: IC50 Pc9.
Source text: as §1, §2
Where [7] appears, read: Homo sapiens, 97H cells, MTT, 48 h.

In general, IC50 refers to the concentration needed to halve the response being measured. As for `C[C@H](c1cccc(-c2ncc(OCC3CCN(C)CC3)cn2)c1)n1cc(-c2cccc(C#N)c2)cnc1=O` [(R)-31e], the IC50 in series [1] (setting [7]) amounted to 18 ± 6 nM. With `C[C@@H](c1cccc(-c2ncc(OCC3CCN(C)CC3)cn2)c1)n1cc(-c2cccc(C#N)c2)cnc1=O` [(S)-31e], the half-inhibitory concentration (IC50) in series [1] (setting [7]) was 1830 ± 26 nM.

A word on the melting point: it is the temperature of the solid-liquid transition. As for `CN(C)CCCSc1cnc(-c2cccc(Cn3cc(-c4cccc(C#N)c4)ncc3=O)c2)nc1` [Compound 11a, 5-(3-cyanophenyl)-1-(3-(5-((3-(dimethylamino)propyl)thio)pyrimidin-2-yl)benzyl)pyrazin-2(1H)-one], the melting point was 106.3 to 107.9 °C. The concentration for half-maximal inhibition (IC50) in series [1] (97H cells, MTT, 48 h) came out at 9810 ± 790 nM. Besides, in series [1] (setting [7]), the concentration for half-maximal inhibition (IC50) came to 9800 nM. `CN(C)CCCSc1cnc(-c2cccc(Cn3cc(-c4cc(F)cc(F)c4)ncc3=O)c2)nc1` [Compound 11b, 5-(3,5-difluorophenyl)-1-(3-(5-((3-(dimethylamino)propyl)thio)pyrimidin-2-yl)benzyl)pyrazin-2(1H)-one] came in with a melting point of 143.7 to 145.2 °C. Also, the IC50 in series [1] (setting [7]) was 9100 ± 670 nM. As for `CN(C)CCCSc1cnc(-c2cccc(Cn3cc(-c4cccc(C#N)c4)cnc3=O)c2)nc1` [Compound 18, 5-(3-cyanophenyl)-1-(3-(5-((3-(dimethylamino)propyl)thio)pyrimidin-2-yl)benzyl)pyrimidin-2(1H)-one], the IC50 in series [1] (97H cells, MTT, 48 h) is 443 ± 4 nM; in series [1] (setting [7]), 360 to 550 nM. Take `CN(C)CCCOc1cnc(-c2cccc(Cn3cc(-c4cccc(C#N)c4)cnc3=O)c2)nc1` [Compound 22, 5-(3-cyanophenyl)-1-(3-(5-(3-(dimethylamino)propoxy)pyrimidin-2-yl)benzyl)pyrimidin-2(1H)-one]: the half-inhibitory concentration (IC50) in series [1] (setting [7]) turned out to be 559 ± 18 nM. In the case of `CN1CCC(COc2cnc(-c3cccc(Cn4cc(-c5cccc(C#N)c5)cnc4=O)c3)nc2)CC1` [Compound 25, 5-(3-cyanophenyl)-1-(3-(5-((1-methylpiperidin-4-yl)methoxy)pyrimidin-2-yl)benzyl)pyrimidin-2(1H)-one], the melting point is 116.7 to 118.2 °C. In addition, in series [1] (97H cells, MTT, 48 h), the concentration for half-maximal inhibition (IC50) amounted to 361 ± 12 nM. Also, in series [1] (setting [7]), the IC50 is 360 to 550 nM. With `CC(c1cccc(-c2ncc(SCCN(C)C)cn2)c1)n1cc(-c2cccc(C#N)c2)cnc1=O` (stereo not shown) [Compound 31a, 5-(3-cyanophenyl)-1-(1-(3-(5-((2-(dimethylamino)ethyl)thio)pyrimidin-2-yl)phenyl)ethyl)pyrimidin-2(1H)-one], in series [1] (setting [7]), the IC50 came out at 186 ± 7 nM. Turning to `CC(c1cccc(-c2ncc(SCCCN(C)C)cn2)c1)n1cc(-c2cccc(C#N)c2)cnc1=O` (stereo not shown) [Compound 31b, 5-(3-cyanophenyl)-1-(1-(3-(5-((3-(dimethylamino)propyl)thio)pyrimidin-2-yl)phenyl)ethyl)pyrimidin-2(1H)-one], in series [1] (setting [7]), the IC50 worked out at 149 ± 12 nM. Regarding `CC(c1cccc(-c2ncc(OCCCN(C)C)cn2)c1)n1cc(-c2cccc(C#N)c2)cnc1=O` (stereo not shown) [Compound 31c, 5-(3-cyanophenyl)-1-(1-(3-(5-(3-(dimethylamino)propoxy)pyrimidin-2-yl)phenyl)ethyl)pyrimidin-2(1H)-one], the melting point is 68.3 to 69.9 °C. Moreover, the IC50 in series [1] (setting [7]) is 216 ± 87 nM.

Take `CC(c1cccc(-c2ncc(OCCN(C)C)cn2)c1)n1cc(-c2cccc(C#N)c2)cnc1=O` (stereo not shown) [Compound 31d, 5-(3-cyanophenyl)-1-(1-(3-(5-(2-(dimethylamino)ethoxy)pyrimidin-2-yl)phenyl)ethyl)pyrimidin-2(1H)-one]: the melting point was in the range of 53.3 to 55 °C. Also, the IC50 in series [1] (setting [7]) is 196 ± 56 nM. On to `CC(c1cccc(-c2ncc(OCCN3CCOCC3)cn2)c1)n1cc(-c2cccc(C#N)c2)cnc1=O` (stereo not shown) [Compound 31f, 5-(3-cyanophenyl)-1-(1-(3-(5-(2-morpholinoethoxy)pyrimidin-2-yl)phenyl)ethyl)pyrimidin-2(1H)-one], for which, in series [1] (setting [7]), the IC50 turned out to be 248 ± 34 nM.

With `CC(c1cccc(-c2ncc(OCC3CCN(C)CC3)cn2)c1)n1cc(-c2cc(F)cc(F)c2)cnc1=O` (stereo not shown) [Compound 31g, 5-(3,5-difluorophenyl)-1-(1-(3-(5-((1-methylpiperidin-4-yl)methoxy)pyrimidin-2-yl)phenyl)ethyl)pyrimidin-2(1H)-one], the melting point was 86.9 to 88.6 °C. Besides, the IC50 in series [1] (setting [7]) was found to be 332 ± 44 nM. In turn, `CN(C)CCCSc1cnc(-c2cccc(Cn3cc(-c4cccc(C#N)c4)cc(F)c3=O)c2)nc1` [Compound 36a, 5-(3-cyanophenyl)-1-(3-(5-((3-(dimethylamino)propyl)thio)pyrimidin-2-yl)benzyl)-3-fluoropyridin-2(1H)-one] had a melting point of 116.3 to 117.9 °C. Besides, the IC50 in series [1] (setting [7]) was 149 ± 35 nM.

`CN(C)CCCSc1cnc(-c2cccc(Cn3cc(-c4cncc(F)c4)cc(F)c3=O)c2)nc1` [Compound 36b, 1-(3-(5-((3-(dimethylamino)propyl)thio)pyrimidin-2-yl)benzyl)-5,5′-difluoro-[3,3′-bipyridin]-6(1H)-one] displayed a melting point of 128.3 to 129.9 °C. Also, the half-inhibitory concentration (IC50) in series [1] (setting [7]) was 3810 ± 45 nM. For `CN(C)CCCSc1cnc(-c2cccc(Cn3cc(-c4cncnc4)cc(F)c3=O)c2)nc1` [Compound 36c, 1-(3-(5-((3-(dimethylamino)propyl)thio)pyrimidin-2-yl)benzyl)-3-fluoro-5-(pyrimidin-5-yl)pyridin-2(1H)-one], the IC50 in series [1] (setting [7]) was found to be 671 ± 56 nM. `CC(c1cccc(-c2ncc(SCCCN(C)C)cn2)c1)n1cc(-c2cccc(C#N)c2)cc(F)c1=O` (stereo not shown) [Compound 39, 5-(3-cyanophenyl)-1-(1-(3-(5-((3-(dimethylamino)propyl)thio)pyrimidin-2-yl)phenyl)ethyl)-3-fluoropyridin-2(1H)-one]: the 50% inhibitory concentration (IC50) in series [1] (setting [7]) is 206 ± 13 nM. For `CN1CCC(COc2cnc(-c3cccc(Cn4nc(-c5cccc(C#N)c5)ccc4=O)c3)nc2)CC1` [Tepotinib, reference compound], the 50% inhibitory concentration (IC50) in series [2] worked out at 10300 ± 460 nM; in series [3] it was 12200 ± 350 nM; in series [4] it was 11200 ± 320 nM; in series [1] (Homo sapiens) it was 13 ± 8 nM; in series [5] it was 9440 ± 150 nM; in series [6], 8105 ± 12 nM.
